# Source: ChEMBL document CHEMBL1201862, “PubChem BioAssay data set” (2004)
# The source made the active and inactive calls. Where a SMILES comes first, the peptide text is derived from it. Bridges are numbered along the chain shown (N, C = ends). [ ]: non-standard residue; d: D form. The star is where a group is joined. bishTyr = N[C@@H](CCCc1ccc(O)cc1)C(=O)O; Tigloyl = C/C=C(\C)C(=O)*; Dhb = C/C=C(\N)C(=O)O
# Columns and labels:
# [1] = Dd2 parasite growth inhibition in erythrocytes – SYBR Green, dry powder samples, set 9, dose response (AID 1159568); assay type: functional, cell-based
# [2] = general cell-killing toxicity readout – plate reader, dry powder samples, cytotoxicity control for PAX8 inhibitor project, dose response (AID 743021); assay type: functional, cell-based
# [3] = IGROV1 cell killing – plate reader, dry powder samples, PAX8 inhibitor project, dose response (AID 743043); assay type: functional, cell-based; conditions: IGROV-1
# [4] = OVCAR-3 cell viability loss – plate reader, dry powder samples, PAX8 inhibitor project, dose response (AID 743044); assay type: functional, cell-based
# Paired box protein Pax-8 = Paired box protein Pax-8 (Homo sapiens, UniProt Q06710); assay: PAX8 transcriptional activity inhibition in RMG-I – RMG-I cells, luciferase, cherry-pick, dose response (AID 687027); assay type: functional, cell-based;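 further: luciferase reporter driven by Pax8 target thyroperoxidase promoter measured by SteadyGlo luminescence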
# [5] = growth inhibition of PfATP4-mutant resistant parasites – NITD609-resistant line, SYBR Green, dry powder, dose response (AID 1159571); assay type: functional, cell-based;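 further: parasites synchronized at ring stage by sorbitol before testing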
# [6] = Dd2 parasite growth inhibition in erythrocytes – SYBR Green, dry powder samples, set 4, dose response (AID 1159572); assay type: functional, cell-based
# [7] = growth inhibition of yeast DHODH-expressing 3D7 parasites – SYBR Green, dry powder samples, dose response (AID 1159570); assay type: functional, cell-based;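 further: parasite growth measured after 72 hours of compound exposure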
# [8] = toxicity to human hepatoma HepG2 cells – cell-based, cherry-picked samples, cytotoxicity control, dose response (AID 1159577); assay type: functional
# [9] = P. falciparum Dd2 growth inhibitors, dose response, SYBR Green, cherry-picked samples (AID 1159567); assay type: functional, cell-based
# [10] = toxicity to human HepG2 hepatoma cells – cell-based, plate reader, dry powder samples, cytotoxicity control, dose response (AID 1159569); assay type: functional;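 further: inhibitor potency with signal falling toward the positive control level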
# [11] = Dd2 malaria parasite growth inhibition potency – SYBR Green, dry powder samples, dose response (AID 1159566); assay type: functional, cell-based;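 further: potency for growth inhibition with lower SYBR green DNA signal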
# [12] = antimalarial activity against Dd2 parasites – SYBR Green fluorescence, erythrocytes, dry powder, set 2, dose response (AID 1159574); assay type: functional, cell-based
# [13] = target: T1, Tyrosine-protein phosphatase non-receptor type 7 (Homo sapiens, UniProt P35236); assay: HePTP tyrosine phosphatase activity blockers – biochemical, absorbance, leukemia target, primary screen (AID 521); assay type: functional
# T1 sequence (P35236 whole entry): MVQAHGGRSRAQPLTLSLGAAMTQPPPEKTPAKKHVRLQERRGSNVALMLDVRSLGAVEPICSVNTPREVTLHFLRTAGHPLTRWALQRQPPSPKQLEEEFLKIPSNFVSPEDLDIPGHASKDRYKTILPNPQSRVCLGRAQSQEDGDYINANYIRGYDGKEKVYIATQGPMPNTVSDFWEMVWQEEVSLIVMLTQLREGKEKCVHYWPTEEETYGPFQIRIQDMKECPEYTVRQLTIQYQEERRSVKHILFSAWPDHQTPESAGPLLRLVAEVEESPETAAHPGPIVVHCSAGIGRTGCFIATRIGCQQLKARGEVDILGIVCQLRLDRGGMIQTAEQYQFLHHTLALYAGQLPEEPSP
# [14] = Luminescence-based cell-based high throughput dose response assay to identify activators of the DAF-12 from the parasite S. stercoralis (ssDAF-12).; assay type: functional
# [15] = target: Oxysterols receptor LXR-beta (Homo sapiens, UniProt P55055); assay: LXR agonists, Gal4 luciferase reporter, dose response, counter-screen for ssDAF-12 agonist project, cell-based, luminescence, HEK293, S. stercoralis campaign (AID 720737); assay type: functional; conditions: read-out: IC50 (the source's name)
# [16] = target: NAD-dependent protein deacylase sirtuin-5, mitochondrial (Homo sapiens, UniProt Q9NXA8); assay: sirtuin-5 deacylation blockers, concentration series – biochemical, fluorescence imaging, cherry-pick, set 5, dose response (AID 720591);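 further: desuccinylation of succinyl peptide AMC substrate read as fluorescence after trypsin release; potency of inhibitors that lower fluorescence and may act on trypsin instead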
# Sequence of NAD-dependent protein deacylase sirtuin-5, mitochondrial (Q9NXA8 whole entry): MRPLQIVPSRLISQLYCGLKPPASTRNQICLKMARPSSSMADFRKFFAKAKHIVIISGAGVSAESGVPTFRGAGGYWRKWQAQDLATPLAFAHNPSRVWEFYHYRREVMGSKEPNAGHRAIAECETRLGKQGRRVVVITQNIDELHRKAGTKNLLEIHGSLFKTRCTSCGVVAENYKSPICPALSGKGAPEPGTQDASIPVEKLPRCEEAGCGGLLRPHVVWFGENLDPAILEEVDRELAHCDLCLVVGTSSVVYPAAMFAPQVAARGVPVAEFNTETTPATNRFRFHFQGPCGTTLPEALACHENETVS
# Sequence of Paired box protein Pax-8 (Q06710 whole entry): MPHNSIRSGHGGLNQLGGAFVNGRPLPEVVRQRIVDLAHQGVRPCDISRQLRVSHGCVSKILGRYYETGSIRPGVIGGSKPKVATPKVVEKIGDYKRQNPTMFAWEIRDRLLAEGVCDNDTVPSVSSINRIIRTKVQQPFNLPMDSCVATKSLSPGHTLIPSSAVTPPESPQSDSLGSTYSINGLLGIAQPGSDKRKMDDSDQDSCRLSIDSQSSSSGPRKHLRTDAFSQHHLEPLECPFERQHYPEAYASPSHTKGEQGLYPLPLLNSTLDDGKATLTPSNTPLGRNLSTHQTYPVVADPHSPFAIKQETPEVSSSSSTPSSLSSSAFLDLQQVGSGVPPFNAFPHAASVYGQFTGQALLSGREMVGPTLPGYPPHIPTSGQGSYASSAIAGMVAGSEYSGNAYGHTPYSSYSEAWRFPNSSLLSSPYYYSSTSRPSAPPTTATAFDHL
# Sequence of Oxysterols receptor LXR-beta (P55055 whole entry, the tested form may be a part): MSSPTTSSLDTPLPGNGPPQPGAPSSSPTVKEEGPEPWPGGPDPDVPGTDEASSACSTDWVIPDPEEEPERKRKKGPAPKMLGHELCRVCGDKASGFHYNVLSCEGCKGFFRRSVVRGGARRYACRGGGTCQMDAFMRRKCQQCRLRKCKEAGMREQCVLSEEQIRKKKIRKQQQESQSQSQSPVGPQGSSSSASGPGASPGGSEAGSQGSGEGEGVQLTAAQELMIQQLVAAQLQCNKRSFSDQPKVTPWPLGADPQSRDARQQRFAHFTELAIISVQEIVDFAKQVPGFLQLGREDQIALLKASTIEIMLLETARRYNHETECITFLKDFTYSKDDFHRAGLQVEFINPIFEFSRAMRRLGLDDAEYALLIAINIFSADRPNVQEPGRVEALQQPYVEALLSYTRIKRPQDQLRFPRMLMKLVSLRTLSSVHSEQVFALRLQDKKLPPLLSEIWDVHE
structure (smiles),measurement,setting,value
C[C@@H]1CCCCO[C@H](CN(C)S(=O)(=O)c2ccccc2)[C@@H](C)CN([C@H](C)CO)C(=O)c2cc(NC(=O)Nc3ccc4c(c3)OCO4)ccc2O1,AC50,[1],8.49 µM (active)
C[C@@H]1CN([C@@H](C)CO)C(=O)Cc2cc(NS(=O)(=O)c3ccc(Cl)cc3)ccc2O[C@@H]1CN(C)CC1CCCCC1,AC50,[2],41.9 µM (active)
same,AC50,[3],46.2 µM (active)
same,AC50,[4],21.2 µM (active)
same,AC50,Paired box protein Pax-8,11.7 µM (active)
COc1ccc2c3c([nH]c2c1)[C@H](CO)N(C(C)=O)CC31CCN(C(=O)Nc2ccccc2F)CC1,AC50,[5],0.0166 µM (active)
same,AC50,[6],0.101 µM (active)
same,AC50,[7],0.0263 µM (active)
same,AC50,[8],33.4 µM (active)
same,AC50,[9],< 0.3 µM (active)
same,AC50,[10],46.9 µM (active)
same,AC50,[11],0.0279 µM (active)
same,AC50,[12],0.0828 µM (active)
CCC(=O)Nc1c(C#N)c2nc3ccccc3nc2n1-c1ccc(C)cc1,IC50,[13],> 100 µM (not active)
COCCNC(=O)Cn1nc(-c2ccc(Cl)cc2)c2ccccc2c1=O,IC50,[14],> 67.5 µM (inactive)
same,EC50,[15],> 67.5 µM (inactive)
C/C=C1\NC(=O)[C@H](C)NC(=O)[C@@H](NC(=O)[C@H](Cc2ccc(O)cc2)NC(=O)[C@@H](NC(=O)/C(C)=C/C)C(C)C)[C@@H](C)OC(=O)[C@H](CCCc2ccc(O)cc2)NC(=O)[C@@H](CCC(=O)O)NC1=O (Tigloyl-VYTA[Dhb][dE][bishTyr]; ester 3-C),AC50,[16],12.6 µM (active)
